In patent US7241757B2, “Amidino derivatives and their use as thrombin inhibitors” (AstraZeneca AB, priority 2000, dated 2007):

Legend:
Human thrombin = molecular target: T1, Human thrombin (Homo sapiens, UniProt P00734); experiment: Test A: Determination of Thrombin Clotting Time (TT); format: biochemical; conditions: concentration of inhibitor that doubles the thrombin clotting time for human plasma
T1 construct: conversion of the proenzyme prothrombin to the active enzyme thrombin; purchased Sigma Chem. Co T 6769
Procedure: Determination of Thrombin Clotting Time (TT)
The inhibitor solution (25 μL) was incubated with plasma (25 μL) for three minutes. Human thrombin (T 6769; Sigma Chem. Co) in buffer solution, pH 7.4 (25 μL) was then added and the clotting time measured in an automatic device (KC 10; Amelung).
The clotting time in seconds was plotted against the inhibitor concentration, and the IC50TT was determined by interpolation.
IC50TT is the concentration of inhibitor in the test that doubles the thrombin clotting time for human plasma.

[1] = rat, in vivo
From the text: Determination of Thrombin Time Ex Vivo
The inhibition of thrombin after oral or parenteral administration of the compounds of formula I, dissolved in ethanol:Solutol™:water (5:5:90), were examined in conscious rats which, one or two days prior to the experiment, were equipped with a catheter for blood sampling from the carotid artery. On the experimental day blood samples were withdrawn at fixed times after the administration of the compound into plastic tubes containing 1 part sodium citrate solution (0.13 mol per L) and 9 parts of blood. The tubes were centrifuged to obtain platelet poor plasma. The plasma was used for determination of thrombin time as described below.
The citrated rat plasma, 100 μL, was diluted with a saline solution, 0.9%, 100 μL, and plasma coagulation was started by the addition of human thrombin (T 6769, Sigma Chem Co, USA) in a buffer solution, pH 7.4, 100 μL. The clotting time was measured in an automatic device (KC 10, Amelumg, Germany). […]
Based on the estimated plasma concentrations of the active thrombin inhibitor (which assumes that thrombin time prolongation is caused by the aforementioned compound) in the rat, the area under the curve after oral and/or parenteral administration of the corresponding prodrug compound of formula I was calculated (AUCpd) using the trapezoidal rule and extrapolation of data to infinity. […]

| SMILES | IC50 (Human thrombin) [nM] | oral and/or parenteral bioavailability as the corresponding active inhibitor (free amidine) [1] |
| --- | --- | --- |
| N=C(N)c1ccc(CNC(=O)C2CCN2C(=O)C2(O)CCOc3c(OC(F)F)cc(Cl)cc32)cc1 (single isomer, unassigned) [Example 8, (S)- or (R)-4-Hydroxy-6-chloro-8-difluoromethoxychroman-4-yl-C(O)-Aze-Pab×HOAc] | < 100 |  |
| CON=C(N)c1ccc(CNC(=O)[C@@H]2CCN2C(=O)C2(O)CCOc3c(OC(F)F)cc(Cl)cc32)cc1 (single isomer, unassigned) [Example 9, (S)- or (R)-4-Hydroxy-6-chloro-8-difluoromethoxychroman-4-yl-C(O)-Aze-Pab(OMe)] |  | exhibit oral and/or parenteral bioavailability |
| N=C(N)c1ccc(CNC(=O)C2CCN2C(=O)C2(O)CCOc3c(OC(F)(F)F)cc(Cl)cc32)cc1 (stereo not shown) [Example 6, 4-Hydroxy-6-chloro-8-trifluoromethoxychroman-4-yl-C(O)-Aze-Pab] | < 100 |  |
| CON=C(N)c1ccc(CNC(=O)[C@@H]2CCN2C(=O)C2(O)CCOc3c(OC(F)(F)F)cc(Cl)cc32)cc1 (stereo partly shown) [Example 7, 4-Hydroxy-6-chloro-8-trifluoromethoxychroman-4-yl-C(O)-Aze-Pab(OMe)] |  | exhibit oral and/or parenteral bioavailability |
